Toxic doses and inconclusive results are not listed.

The subject of this test is CD2F1 mice, L1210 leukemia ip, survival T/C. Put plainly: NCI In Vivo Anticancer Drug Screen. Data for tumor model L1210 Leukemia (intraperitoneal) in CD2F1 (CDF1) mice. The note with it: higher = longer survival. Put shortly:
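Transplantable tumor in mice; compound-treated vs vehicle-treated groups. Read-out = treated/control ratio of the measured endpoint.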

Where [1] appears, read: endpoint: mean survival time, dose: 100.0 mg/kg/injection, schedule: Q01DX001 (ip), vehicle: Klucel (hydroxypropylcellulose) (HPC).
The mark [2] stands for this setting: endpoint: mean survival time, dose: 200.0 mg/kg/injection, schedule: Q01DX001 (ip), vehicle: Klucel (hydroxypropylcellulose) (HPC).
Setting [3] is: endpoint: mean survival time, dose: 100.0 mg/kg/injection, schedule: Q01DX009 (ip), vehicle: saline with Tween-80.
[4] abbreviates: endpoint: mean survival time, dose: 200.0 mg/kg/injection, schedule: Q01DX009 (ip), vehicle: saline with Tween-80.
Where [5] appears, read: endpoint: mean survival time, dose: 50.0 mg/kg/injection, schedule: Q01DX009 (ip), vehicle: saline with Tween-80.
[6] abbreviates: endpoint: mean survival time, dose: 25.0 mg/kg/injection, schedule: Q04DX002 (ip), vehicle: saline with Tween-80.
Where [7] appears, read: endpoint: mean survival time, dose: 50.0 mg/kg/injection, schedule: Q04DX002 (ip), vehicle: saline with Tween-80.
The mark [8] stands for this setting: endpoint: mean survival time, dose: 100.0 mg/kg/injection, schedule: Q01DX001 (ip), vehicle: saline.
Setting [9] is: endpoint: mean survival time, dose: 200.0 mg/kg/injection, schedule: Q01DX001 (ip), vehicle: saline.
Setting [10] is: endpoint: mean survival time, dose: 400.0 mg/kg/injection, schedule: Q01DX001 (ip), vehicle: saline.

As to `CN(CN1C(=O)CCC1=O)CN1C(=O)CCC1=O`, the T/C by setting is: (endpoint: median survival time, dose: 50.0 mg/kg/injection, schedule: Q01DX005 (ip), vehicle: saline) 105 % of control; (endpoint: median survival time, dose: 100.0 mg/kg/injection, schedule: Q01DX005 (ip), vehicle: saline) 113 % of control; (endpoint: median survival time, dose: 200.0 mg/kg/injection, schedule: Q01DX005 (ip), vehicle: saline) 121 % of control; (endpoint: median survival time, dose: 400.0 mg/kg/injection, schedule: Q01DX005 (ip), vehicle: saline) 121 % of control.

On to `CCCCCCCC=C(CCCCCCCC)CCCCCCCC`, for which the T/C is, setting by setting: (endpoint: mean survival time, dose: 100.0 mg/kg/injection, schedule: Q01DX001 (ip), vehicle: saline with Tween-80) 100 % of control; (endpoint: mean survival time, dose: 200.0 mg/kg/injection, schedule: Q01DX001 (ip), vehicle: saline with Tween-80) 97 % of control; (endpoint: mean survival time, dose: 400.0 mg/kg/injection, schedule: Q01DX001 (ip), vehicle: saline with Tween-80) 100 % of control.

As for `c1coc(CNc2ncnc3c2ncn3CCCCCCn2cnc3c(NCc4ccco4)ncnc32)c1`, the T/C by setting is: (endpoint: mean survival time, dose: 1.0 mg/kg/injection, schedule: Q01DX005 (ip), vehicle: other) 95 % of control; (endpoint: mean survival time, dose: 2.0 mg/kg/injection, schedule: Q01DX005 (ip), vehicle: other) 92 % of control; (endpoint: mean survival time, dose: 4.0 mg/kg/injection, schedule: Q01DX005 (ip), vehicle: other) 95 % of control; (endpoint: mean survival time, dose: 16.0 mg/kg/injection, schedule: Q01DX005 (ip), vehicle: other) 95 % of control.

On to `C[S+](C)CC(=O)O`, for which the T/C reads like this: (endpoint: mean survival time, dose: 100.0 mg/kg/injection, schedule: Q01DX009 (ip), vehicle: saline) 97 % of control; (endpoint: mean survival time, dose: 200.0 mg/kg/injection, schedule: Q01DX009 (ip), vehicle: saline) 101 % of control; (endpoint: mean survival time, dose: 400.0 mg/kg/injection, schedule: Q01DX009 (ip), vehicle: saline) 92 % of control.

Turning to `COC(=O)C(C(=O)OC(C)C)C(=O)OC(C)C`, the T/C was 105 % of control (endpoint: mean survival time, dose: 50.0 mg/kg/injection, schedule: Q01DX001 (ip), vehicle: Klucel (hydroxypropylcellulose) (HPC)); 96 % of control under setting [1]; 99 % of control under setting [2].

As for `CCOc1ccc([NH-])c([NH-])c1.[Cl][Pt+2][Cl]`, the T/C reads like this: (endpoint: mean survival time, dose: 2.5 mg/kg/injection, schedule: Q01DX009 (ip), vehicle: distilled water + Tween-80) 100 % of control; (endpoint: mean survival time, dose: 5.0 mg/kg/injection, schedule: Q01DX009 (ip), vehicle: distilled water + Tween-80) 107 % of control; (endpoint: mean survival time, dose: 10.0 mg/kg/injection, schedule: Q01DX009 (ip), vehicle: distilled water + Tween-80) 91 % of control.

Regarding `CC(C)C(=O)Nc1ccc(Cl)cc1`, the T/C is 100 % of control under setting [3] and 97 % of control under setting [4].

Turning to `CC(C)c1cc(O)ccc1N(C)C` (tested in a mixture with another compound), the T/C runs as follows: (endpoint: mean survival time, dose: 32.0 micrograms/kg/injection, schedule: Q04DX003 (ip), vehicle: saline) 102 % of control; (endpoint: mean survival time, dose: 63.0 micrograms/kg/injection, schedule: Q01DX001 (ip), vehicle: saline) 98 % of control; (endpoint: mean survival time, dose: 63.0 micrograms/kg/injection, schedule: Q04DX003 (ip), vehicle: saline) 101 % of control; (endpoint: mean survival time, dose: 125.0 micrograms/kg/injection, schedule: Q01DX001 (ip), vehicle: saline) 98 % of control; (endpoint: mean survival time, dose: 125.0 micrograms/kg/injection, schedule: Q04DX003 (ip), vehicle: saline) 90 % of control.

Regarding `O=c1n(CCCl)c(=O)n(CCCl)c(=O)n1CCCl`, the T/C under setting [5] was 101 % of control, the T/C under setting [3] was 100 % of control and the T/C under setting [4] is 101 % of control.

Consider `C[N+](C)(C)C.[Cl-].[Cl-].[Cl][Sn]([Cl])[Cl].[Cl][Sn]([Cl])[Cl].[Ru+]`, for which the T/C by setting is: under setting [6], 107 % of control; under setting [7], 96 % of control.

On to `CNC(=O)OCC1C(=O)C2C(CN(C)C3=C1C(=O)C(N)=C(C)C3=O)N2C` (stereo unspecified), for which the T/C is 106 % of control (endpoint: mean survival time, dose: 83.0 mg/kg/injection, schedule: Q01DX001 (ip), vehicle: carboxymethylcellulose (CMC)); 102 % of control (endpoint: mean survival time, dose: 125.0 mg/kg/injection, schedule: Q01DX001 (ip), vehicle: carboxymethylcellulose (CMC)); 118 % of control (endpoint: mean survival time, dose: 187.0 mg/kg/injection, schedule: Q01DX001 (ip), vehicle: carboxymethylcellulose (CMC)).

As to `CC(=Nc1ccccc1)C1=C(O)C(Cc2ccc(F)cc2)NC1=O` (stereo unspecified), the T/C (endpoint: mean survival time, dose: 12.5 mg/kg/injection, schedule: Q04DX002 (ip), vehicle: saline with Tween-80) was 103 % of control; the T/C under setting [6] is 100 % of control; the T/C under setting [7] is 100 % of control.

Regarding `CCCCOC(=O)CCC(NC(=O)c1ccc(N(C)Cc2cnc3nc(N)nc(N)c3n2)cc1)C(=O)O` (stereo unspecified), the T/C was 112 % of control (endpoint: mean survival time, dose: 0.19 mg/kg/injection, schedule: Q01DX009 (ip), vehicle: water); 120 % of control (endpoint: mean survival time, dose: 0.38 mg/kg/injection, schedule: Q01DX009 (ip), vehicle: water); 159 % of control (endpoint: mean survival time, dose: 1.5 mg/kg/injection, schedule: Q01DX009 (ip), vehicle: water); 180 % of control (endpoint: mean survival time, dose: 3.0 mg/kg/injection, schedule: Q01DX009 (ip), vehicle: water); 86 % of control (endpoint: mean survival time, dose: 6.0 mg/kg/injection, schedule: Q01DX009 (ip), vehicle: water).

Take `Cc1cc(O)c2c(c1O)C(=O)c1c(O)ccc(O)c1C2=O`: the T/C by setting is: under setting [8], 95 % of control; under setting [9], 95 % of control; under setting [10], 97 % of control.

For `BrC1=C(c2ccccc2)C2CCCCC2C1(Br)c1ccccc1` (stereo unspecified), the T/C by setting is: under setting [1], 98 % of control; under setting [2], 102 % of control; (endpoint: mean survival time, dose: 400.0 mg/kg/injection, schedule: Q01DX001 (ip), vehicle: Klucel (hydroxypropylcellulose) (HPC)) 102 % of control.

As to `O=c1cc(-c2ccc3c(c2)OCO3)oc2ccccc12`, the T/C runs as follows: (endpoint: mean survival time, dose: 50.0 mg/kg/injection, schedule: Q01DX001 (ip), vehicle: saline) 102 % of control; under setting [8], 98 % of control; under setting [9], 98 % of control; under setting [10], 92 % of control.

As for `Cc1cc(NC(=O)Nc2ccc(Cl)cc2)no1`, the T/C runs as follows: (endpoint: mean survival time, dose: 50.0 mg/kg/injection, schedule: Q01DX009 (ip), vehicle: saline sonified) 96 % of control; (endpoint: mean survival time, dose: 100.0 mg/kg/injection, schedule: Q01DX009 (ip), vehicle: saline sonified) 96 % of control; (endpoint: mean survival time, dose: 200.0 mg/kg/injection, schedule: Q01DX009 (ip), vehicle: saline sonified) 96 % of control.

For `O=C1CC[C@@H]2CCCC[C@@H]2C1`, the T/C is 96 % of control (endpoint: mean survival time, dose: 12.5 mg/kg/injection, schedule: Q01DX009 (ip), vehicle: saline with Tween-80); 92 % of control (endpoint: mean survival time, dose: 25.0 mg/kg/injection, schedule: Q01DX009 (ip), vehicle: saline with Tween-80); 98 % of control under setting [5]; 98 % of control (endpoint: mean survival time, dose: 50.0 mg/kg/injection, schedule: Q04DX003 (ip), vehicle: saline with Tween-80).

As for `O=C(c1cccnc1)n1cc2c(n1)C1=C(CCCC1)CC2`, the T/C was 90 % of control (endpoint: mean survival time, dose: 50.0 mg/kg/injection, schedule: Q01DX009 (ip), vehicle: Klucel (hydroxypropylcellulose) (HPC)); 105 % of control (endpoint: mean survival time, dose: 100.0 mg/kg/injection, schedule: Q01DX009 (ip), vehicle: Klucel (hydroxypropylcellulose) (HPC)); 102 % of control (endpoint: mean survival time, dose: 200.0 mg/kg/injection, schedule: Q01DX009 (ip), vehicle: Klucel (hydroxypropylcellulose) (HPC)).

Take `Nc1c(-c2nccc(=O)[nH]2)ncn1C1OC(CO)C(O)C1O` (stereo unspecified): the T/C (endpoint: median survival time, dose: 12.5 mg/kg/injection, schedule: Q01DX005 (ip), vehicle: saline with Tween-80) is 102 % of control; the T/C (endpoint: median survival time, dose: 25.0 mg/kg/injection, schedule: Q01DX005 (ip), vehicle: saline with Tween-80) is 96 % of control; the T/C (endpoint: median survival time, dose: 50.0 mg/kg/injection, schedule: Q01DX005 (ip), vehicle: saline with Tween-80) was 103 % of control; the T/C (endpoint: median survival time, dose: 100.0 mg/kg/injection, schedule: Q01DX005 (ip), vehicle: saline with Tween-80) was 98 % of control; the T/C (endpoint: median survival time, dose: 200.0 mg/kg/injection, schedule: Q01DX005 (ip), vehicle: saline with Tween-80) is 102 % of control.

Regarding `O=C1C2CCCC1C1/C(=[N+](/[O-])O)C=C([N+](=O)[O-])C2C1[N+](=O)[O-]` (stereo unspecified), the T/C by setting is: (endpoint: mean survival time, dose: 100.0 mg/kg/injection, schedule: Q04DX002 (ip), vehicle: saline with Tween-80) 98 % of control; (endpoint: mean survival time, dose: 200.0 mg/kg/injection, schedule: Q04DX002 (ip), vehicle: saline with Tween-80) 98 % of control; (endpoint: mean survival time, dose: 400.0 mg/kg/injection, schedule: Q04DX002 (ip), vehicle: saline with Tween-80) 110 % of control.

The record behind these values is PubChem BioAssay AID256 (DTP/NCI, 2004).
